Data reported in patent US10174033B2, “N6-substituted adenosine derivatives and N6-substituted adenine derivatives and uses thereof” (INSTITUTE OF MATERIA MEDICA, CHINESE ACADEMY OF MEDICAL …, priority 2009, dated 2019).

Test system: male ICR-mice
Experiment: Potentiation of sodium pentobarbital sleeping time test
Type: in vivo
Experimental: Effects of N^6-substituted adenosine derivatives and/or N^6-substituted adenine derivatives on sodium pentobarbital-induced sleeping time in mice.
Name of Experiment: Potentiation of sodium pentobarbital sleeping time test.
Method of Experiment: Groups of 8-10 male ICR-mice with an average weight of 18-22 g were used. They were dosed orally or i.p. with the test compound or the vehicle. Thirty min after i.p. injection or 60 min after oral dosing 38 mg/kg sodium pentobarbital were injected intravenously. The latency and duration of sleep (loss of righting reflex) were recorded. The percentage of prolongation of sleeping time was calculated as: [(sleeping time of experimental group)−(sleeping time of control group)]/(sleeping time of control group)×100%.

[1] = oral, 5 mg/kg, 38 mg/kg sodium pentobarbital 60 min later
[2] = oral, 2.5 mg/kg, 38 mg/kg sodium pentobarbital 60 min later
[3] = intraperitoneal, 5 mg/kg, 38 mg/kg sodium pentobarbital 30 min later

SMILES | Sleep prolonging rate (%) [1] [%] | other results
Cc1ccc([C@@H](C)Nc2ncnc3c2ncn3[C@@H]2O[C@H](CO)[C@@H](O)[C@H]2O)cc1 [Example 59, N^6-[(R)-1-(4-methylphenyl)-ethyl]-adenosine] | 99 | –
Cc1ccc([C@H](C)Nc2ncnc3c2ncn3[C@@H]2O[C@H](CO)[C@@H](O)[C@H]2O)cc1 [Example 60, N^6-[(S)-1-(4-methylphenyl)-ethyl]adenosine] | 19 | –
COc1ccc([C@@H](C)Nc2ncnc3c2ncn3[C@@H]2O[C@H](CO)[C@@H](O)[C@H]2O)cc1 [Example 62, N^6-[(R)-1-(4-methoxyphenyl)-ethyl]-adenosine] | 66 | –
OC[C@@H](Nc1ncnc2c1ncn2[C@@H]1O[C@H](CO)[C@@H](O)[C@H]1O)c1ccccc1 [Example 64, N^6-[(L)-2-(hydroxy)-1-(phenyl)-ethyl]-adenosine] | 67 | –
COc1cccc([C@@H](C)Nc2ncnc3c2ncn3[C@@H]2O[C@H](CO)[C@@H](O)[C@H]2O)c1 [Example 65, N^6-[(R)-1-(3-methoxyphenyl)-ethyl]-adenosine] | 160 | –
COc1cccc([C@H](C)Nc2ncnc3c2ncn3[C@@H]2O[C@H](CO)[C@@H](O)[C@H]2O)c1 [Example 66, N^6-[(S)-1-(3-methoxyphenyl)-ethyl]-adenosine] | 39 | –
C[C@@H](Nc1ncnc2c1ncn2[C@@H]1O[C@H](CO)[C@@H](O)[C@H]1O)c1ccc(Cl)cc1 [Example 68, N^6-[(R)-1-(4-chlorophenyl)-ethyl]-adenosine] | 103 | –
C[C@H](Nc1ncnc2c1ncn2[C@@H]1O[C@H](CO)[C@@H](O)[C@H]1O)c1ccc(Cl)cc1 [Example 69, N^6-[(S)-1-(4-chlorophenyl)-ethyl]-adenosine] | 33 | –
C[C@@H](Nc1ncnc2c1ncn2[C@@H]1O[C@H](CO)[C@@H](O)[C@H]1O)c1ccc(F)cc1 [Example 70, N^6-[(R)-1-(4-fluorophenyl)-ethyl]-adenosine] | 136 | –
C[C@H](Nc1ncnc2c1ncn2[C@@H]1O[C@H](CO)[C@@H](O)[C@H]1O)c1ccc(F)cc1 [Example 71, N^6-[(S)-1-(4-fluorophenyl)-ethyl]-adenosine] | 24 | –
CC[C@@H](Nc1ncnc2c1ncn2[C@@H]1O[C@H](CO)[C@@H](O)[C@H]1O)c1ccccc1 [Example 75, N^6-[(R)-1-(phenyl)-propyl]-adenosine] | – | Sleep prolonging rate (%) [2]: 183%
CC[C@@H](Nc1ncnc2c1ncn2[C@@H]1O[C@H](COC(C)=O)C(OC(C)=O)C1OC(C)=O)c1ccccc1 (stereo partly drawn) [Example 76, N^6-[(R)-1-(phenyl)-propyl]-adenosine-2′,3′,5′-triacetate] | 339 | –
CC[C@@H](Nc1ncnc2c1ncn2[C@@H]1O[C@H](COC(C)=O)C(O)C1O)c1ccccc1 (stereo partly drawn) [Example 77, N^6-[(R)-1-(phenyl)-propyl]-adenosine-5′-acetate] | 590 | –
CC[C@H](Nc1ncnc2c1ncn2[C@@H]1O[C@H](CO)[C@@H](O)[C@H]1O)c1ccccc1 [Example 78, N^6-[(S)-1-(phenyl)-propyl]-adenosine] | – | Sleep prolonging rate (%) [2]: 49%
CC[C@H](Nc1ncnc2c1ncn2[C@@H]1O[C@H](COC(C)=O)C(OC(C)=O)C1OC(C)=O)c1ccccc1 (stereo partly drawn) [Example 79, N^6-[(S)-1-(phenyl)-propyl]-adenosine-2′,3′,5′-triacetate] | 41 | –
CC[C@H](Nc1ncnc2c1ncn2[C@@H]1O[C@H](COC(C)=O)C(O)C1O)c1ccccc1 (stereo partly drawn) [Example 80, N^6-[(S)-1-(phenyl)-propyl]-adenosine-5′-acetate] | 24 | –
CCCOC[C@H]1O[C@@H](n2cnc3c(N[C@@H](CC)c4ccccc4)ncnc32)C(O)C1O (stereo partly drawn) [Example 83, N^6-[(S)-1-(phenyl)-propyl]-adenosine-5′-propyl ether] | 4 | –
CC[C@@H](Nc1ncnc2c1ncn2[C@@H]1O[C@H](COc2ccccc2[N+](=O)[O-])C(O)[C@@H]1O)c1ccccc1 (stereo partly drawn) [Example 85, N^6-[(R)-1-(phenyl)-propyl]-adenosine-5′-o-nitrophenyl ether] | 87 | –
CCCOC[C@H]1O[C@@H](n2cnc3c(N[C@H](CC)c4ccccc4)ncnc32)C(O)C1O (stereo partly drawn) [Example 86, N^6-[(R)-1-(phenyl)-propyl]-adenosine-5′-propyl ether] | 318 | –
CCC[C@@H](Nc1ncnc2c1ncn2[C@@H]1O[C@H](CO)C(O)C1O)c1ccccc1 (stereo partly drawn) [Example 89, N^6-[(R)-(phenyl)-butyl]-adenosine] | 163 | –
OC[C@H]1O[C@@H](n2cnc3c(NC(c4ccccc4)c4ccccc4)ncnc32)[C@H](O)[C@@H]1O [Example 95, N^6-(diphenylmethyl)-adenosine] | 16 | –
OC[C@H]1O[C@@H](n2cnc3c(NC4c5ccccc5-c5ccccc54)ncnc32)[C@H](O)[C@@H]1O [Example 98, N^6-(fluorene-9-yl)-adenosine] | 53 | –

SMILES | Sleep prolonging rate (%) [1] [%] | other results
OC[C@H]1O[C@@H](n2cnc3c(N[C@H](c4ccccc4)[C@@H](O)c4ccccc4)ncnc32)C(O)C1O (stereo partly drawn) [Example 99, N^6-{(1S,2R)-[2-hydroxy-(1,2-diphenyl)]-ethyl}-adenosine] | 46 | –
OC[C@H]1O[C@@H](n2cnc3c(N[C@@H](c4ccccc4)[C@H](O)c4ccccc4)ncnc32)C(O)C1O (stereo partly drawn) [Example 100, N^6-{(1R,2S)-[2-hydroxy-(1,2-diphenyl)]-ethyl}-adenosine] | 38 | –
O=C(O)[C@H](Cc1ccccc1)Nc1ncnc2c1ncn2[C@@H]1O[C@H](CO)C(O)C1O (some centres unmarked) [Example 102, N-(6-adenosine)-(L)-phenylalanine] | – | Sleep prolonging rate (%) [3]: 44%
COC(=O)[C@@H](Cc1ccccc1)Nc1ncnc2c1ncn2[C@@H]1O[C@H](CO)C(O)C1O (some centres unmarked) [Example 105, N-(6-adenosine)-(D)-phenylalanine methyl ester] | 2 | –
O=C(O)[C@H](Cc1ccc(O)cc1)Nc1ncnc2c1ncn2[C@@H]1O[C@H](CO)C(O)C1O (some centres unmarked) [Example 107, N-(6-adenosine)-(L)-tyrosine] | – | Sleep prolonging rate (%) [3]: 66%
CCOC(=O)[C@@H](Cc1ccc(O)cc1)Nc1ncnc2c1ncn2[C@@H]1O[C@H](CO)C(O)C1O (some centres unmarked) [Example 108, N-(6-adenosine)-(D)-tyrosine ethyl ester] | 32 | –
CCOC(=O)[C@H](Cc1ccc(O)cc1)Nc1ncnc2c1ncn2[C@@H]1O[C@H](CO)C(O)C1O (some centres unmarked) [Example 109, N-(6-adenosine)-(L)-tyrosine ethyl ester] | 36 | –
O=C(O)[C@H](Cc1c[nH]c2ccccc12)Nc1ncnc2c1ncn2[C@@H]1O[C@H](CO)C(O)C1O (some centres unmarked) [Example 112, N-(6-adenosine)-(D)-tryptophan] | – | Sleep prolonging rate (%) [3]: 89%
CCOC(=O)[C@H](Cc1c[nH]c2ccccc12)Nc1ncnc2c1ncn2[C@@H]1O[C@H](CO)C(O)C1O (some centres unmarked) [Example 113, N-(6-adenosine)-(L)-tryptophan ethyl ester] | 7 | –
CCOC(=O)[C@@H](Cc1c[nH]c2ccccc12)Nc1ncnc2c1ncn2[C@@H]1O[C@H](CO)C(O)C1O (some centres unmarked) [Example 114, N-(6-adenosine)-(D)-tryptophan ethyl ester] | 16 | –
O=C(O)[C@@H]1CCCN1c1ncnc2c1ncn2[C@@H]1O[C@H](CO)C(O)C1O (some centres unmarked) [Example 118, N-(6-adenosine)-(L)-proline] | – | Sleep prolonging rate (%) [3]: 29%
OCC(CO)Nc1ncnc2c1ncn2[C@@H]1O[C@H](CO)C(O)C1O (some centres unmarked) [Example 129, N^6-[2-(1,3-dihydroxy)-propyl]-adenosine] | 184 | –
CC[C@H](C)[C@@H](CO)Nc1ncnc2c1ncn2[C@@H]1O[C@H](CO)C(O)C1O (some centres unmarked) [Example 131, N^6-[(L)-2-(1-hydroxy-3-methyl)-pentyl]-adenosine] | 36 | –
CSCC[C@@H](CO)Nc1ncnc2c1ncn2[C@@H]1O[C@H](CO)C(O)C1O (some centres unmarked) [Example 132, N^6-[(L)-2-(1-hydroxy-4-methylthioyl)-butyl]-adenosine] | 53 | –
CN(Cc1ccccc1)c1ncnc2c1ncn2[C@@H]1O[C@H](CO)[C@@H](O)[C@H]1O [Example 133, N^6-methyl-N^6-benzyl-adenosine] | 27 | –
CCN(Cc1ccccc1)c1ncnc2c1ncn2[C@@H]1O[C@H](CO)[C@@H](O)[C@H]1O [Example 134, N^6-ethyl-N^6-benzyl-adenosine] | 7 | –
C[C@H]([C@@H](O)c1ccccc1)N(C)c1ncnc2c1ncn2[C@@H]1O[C@H](CO)C(O)C1O (stereo partly drawn) [Example 135, N^6-methyl-N^6-[2-(1S,2R)-(1-hydroxy-1-phenyl)-propyl]-adenosine] | 39 | –
C[C@H]([C@H](O)c1ccccc1)N(C)c1ncnc2c1ncn2[C@@H]1O[C@H](CO)C(O)C1O (stereo partly drawn) [Example 136, N^6-methyl-N^6-[2-(1R,2R)-(1-hydroxy-1-phenyl)-propyl]-adenosine] | 44 | –
OCCN(Cc1ccccc1)c1ncnc2c1ncn2[C@@H]1O[C@H](CO)[C@@H](O)[C@H]1O [Example 138, N^6-(2-hydroxyethyl)-N^6-benzyl-adenosine] | 18 | –
CCN(CCO)c1ncnc2c1ncn2[C@@H]1O[C@H](CO)[C@@H](O)[C@H]1O [Example 139, N^6-ethyl-N^6-(2-hydroxyethyl)-adenosine] | 5 | –
CC(O)CN(CC(C)O)c1ncnc2c1ncn2[C@@H]1O[C@H](CO)[C@@H](O)[C@H]1O (some centres unmarked) [Example 140, N^6,N^6-bis(2-hydroxypropyl)-adenosine] | 5 | –
CN(c1ncnc2c1ncn2[C@@H]1O[C@H](CO)[C@@H](O)[C@H]1O)C1CCCCC1 [Example 141, N^6-methyl-N^6-cyclohexyl-adenosine] | 55 | –
